Test results reported in patent publication US8057783B2, “Method of injecting liquid agents at acupuncture points to arrive internal organs and method of visualizing arrival of liquid agents” (Seoul National University Industry Foundation, priority 2007, dated 2011).

Assay: Injection of alcian blue solution at the lowest electric resistance point near Jung-Wan, arrival at pancreas observed by stereoscopic microscope
Type: in vivo
Conditions: hairless mouse, subcutaneous tissue near Jung-Wan, 0.1 μl a minute for 2 to 3 hours
Description: For laboratory animals, the hairless mouse (males, about 6 weeks old) supplied from the JungAng Laboratory Animal Company were used. The laboratory animals were managed in a breeding cage with temperature of 23° C. and 60% relative humidity under 12 hour light/dark cycles and supplied with food and water for ad libitum access.
The hairless mouse living in the above environment was anaesthetized by administering 1.5 g/kg of urethane, and all of the surgical procedures were performed under anesthesia. The hairless mouse under anesthesia were placed on the operating table under the stereoscopic microscope (Olympus SZX12) connected with the computer and the CCD camera.
Jung-Wan was determined at the middle of the umbilicus and the xiphoid process-sternum junction (JungJeong, one of acupuncture points) along the linea alba of the hairless mouse according to “GolDo method”, which is a method of finding acupuncture points by using its unique measuring units. After Jung-Wan was determined, the point having the lowest electric resistance was found within a radius of 2 mm from Jung-Wan by using the electro acupuncture point detector (Hamtech Korea Co., YNS202-S) and determined as the point into which an alcian blue solution would be injected. […]

## alcian blue [alcian blue solution]
  distribution of the visualizing material in internal organs after injection: dispersed into the threadlike structures penetrating out through the surface of the pancreas
